Data as given in the Kinase Knowledgebase extract (Sharma et al. 2016).

Assays:
PIK3CD (Human) [1] = biological target: PIK3CD (Human) (UniProt O00329); test: Assessment of PIK3CD Kinase Activity
PIK3CG (human) = PIK3CG (human) (UniProt P48736); test: Assessment of PIK3CG Kinase Activity
PIK3CB (Human) = PIK3CB (Human) (UniProt P42338); test: Assessment of PIK3CB Kinase Activity
PIK3CD (Human) [2] = biological target: PIK3CD (Human) (UniProt O00329); test: Assessment of PIK3CD Kinase Activity in RAJI Cells
PIK3CA (human) [3] = biological target: PIK3CA (human) (UniProt P42336); test: Assessment of PIK3CA Kinase Activity in SKOV-3 Cells
PIK3CA (human) [4] = biological target: PIK3CA (human) (UniProt P42336); test: Assessment of PIK3CA Kinase Activity

PIK3CD (Human), sequence (O00329 whole entry, looked up): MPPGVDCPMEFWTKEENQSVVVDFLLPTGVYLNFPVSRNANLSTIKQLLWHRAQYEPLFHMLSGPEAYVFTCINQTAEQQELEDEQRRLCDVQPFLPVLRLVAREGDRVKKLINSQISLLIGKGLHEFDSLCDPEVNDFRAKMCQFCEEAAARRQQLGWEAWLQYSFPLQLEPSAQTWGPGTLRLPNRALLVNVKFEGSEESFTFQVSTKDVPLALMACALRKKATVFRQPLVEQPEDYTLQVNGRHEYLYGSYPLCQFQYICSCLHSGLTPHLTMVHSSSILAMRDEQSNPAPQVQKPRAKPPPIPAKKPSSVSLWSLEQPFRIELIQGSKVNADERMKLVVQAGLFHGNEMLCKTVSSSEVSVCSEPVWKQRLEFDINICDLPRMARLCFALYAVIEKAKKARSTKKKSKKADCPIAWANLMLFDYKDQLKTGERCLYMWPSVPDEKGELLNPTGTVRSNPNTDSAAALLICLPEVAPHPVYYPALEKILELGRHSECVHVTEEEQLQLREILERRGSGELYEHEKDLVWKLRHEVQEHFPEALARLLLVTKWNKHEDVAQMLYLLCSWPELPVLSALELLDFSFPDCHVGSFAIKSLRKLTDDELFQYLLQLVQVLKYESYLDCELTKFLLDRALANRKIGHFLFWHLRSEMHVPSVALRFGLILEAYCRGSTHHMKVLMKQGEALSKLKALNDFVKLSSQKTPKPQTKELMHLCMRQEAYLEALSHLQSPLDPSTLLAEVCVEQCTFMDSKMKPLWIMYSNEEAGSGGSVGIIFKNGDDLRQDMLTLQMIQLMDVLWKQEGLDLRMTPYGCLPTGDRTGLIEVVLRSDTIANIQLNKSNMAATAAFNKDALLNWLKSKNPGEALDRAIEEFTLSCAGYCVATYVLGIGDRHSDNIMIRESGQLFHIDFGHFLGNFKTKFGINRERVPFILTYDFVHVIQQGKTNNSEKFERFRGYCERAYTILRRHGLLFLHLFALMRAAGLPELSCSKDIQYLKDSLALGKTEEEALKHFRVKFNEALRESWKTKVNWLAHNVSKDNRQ
PIK3CG (human), sequence (P48736 whole entry, looked up): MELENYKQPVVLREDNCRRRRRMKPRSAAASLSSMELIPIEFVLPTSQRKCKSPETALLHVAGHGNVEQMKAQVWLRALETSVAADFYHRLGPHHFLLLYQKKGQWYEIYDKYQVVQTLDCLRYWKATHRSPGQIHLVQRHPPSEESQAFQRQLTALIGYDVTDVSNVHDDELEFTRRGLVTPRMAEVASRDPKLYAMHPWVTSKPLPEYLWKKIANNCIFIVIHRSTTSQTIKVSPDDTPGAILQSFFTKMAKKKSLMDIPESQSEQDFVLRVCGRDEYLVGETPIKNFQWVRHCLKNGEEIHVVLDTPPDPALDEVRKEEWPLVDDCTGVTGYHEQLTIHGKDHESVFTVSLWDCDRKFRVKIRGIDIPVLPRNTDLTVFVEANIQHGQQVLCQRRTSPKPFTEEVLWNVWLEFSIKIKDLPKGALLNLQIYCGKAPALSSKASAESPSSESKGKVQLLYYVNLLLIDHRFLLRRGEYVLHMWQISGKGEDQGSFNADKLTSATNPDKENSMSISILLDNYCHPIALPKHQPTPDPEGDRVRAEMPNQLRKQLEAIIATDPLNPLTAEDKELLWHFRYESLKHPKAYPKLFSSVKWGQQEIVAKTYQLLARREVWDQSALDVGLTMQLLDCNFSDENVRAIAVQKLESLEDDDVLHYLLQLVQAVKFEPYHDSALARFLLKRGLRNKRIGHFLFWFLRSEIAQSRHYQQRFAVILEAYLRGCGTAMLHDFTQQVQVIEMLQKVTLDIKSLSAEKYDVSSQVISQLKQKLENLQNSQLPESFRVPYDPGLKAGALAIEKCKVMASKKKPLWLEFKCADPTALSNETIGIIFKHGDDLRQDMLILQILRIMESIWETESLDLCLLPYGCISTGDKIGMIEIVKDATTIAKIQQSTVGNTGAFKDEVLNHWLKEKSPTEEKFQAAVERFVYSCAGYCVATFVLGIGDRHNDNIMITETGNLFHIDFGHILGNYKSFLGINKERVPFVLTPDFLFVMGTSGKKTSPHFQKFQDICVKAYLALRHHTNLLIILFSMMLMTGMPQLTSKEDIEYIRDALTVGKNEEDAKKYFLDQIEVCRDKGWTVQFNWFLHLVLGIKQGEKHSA
PIK3CB (Human), sequence (P42338 whole entry, looked up): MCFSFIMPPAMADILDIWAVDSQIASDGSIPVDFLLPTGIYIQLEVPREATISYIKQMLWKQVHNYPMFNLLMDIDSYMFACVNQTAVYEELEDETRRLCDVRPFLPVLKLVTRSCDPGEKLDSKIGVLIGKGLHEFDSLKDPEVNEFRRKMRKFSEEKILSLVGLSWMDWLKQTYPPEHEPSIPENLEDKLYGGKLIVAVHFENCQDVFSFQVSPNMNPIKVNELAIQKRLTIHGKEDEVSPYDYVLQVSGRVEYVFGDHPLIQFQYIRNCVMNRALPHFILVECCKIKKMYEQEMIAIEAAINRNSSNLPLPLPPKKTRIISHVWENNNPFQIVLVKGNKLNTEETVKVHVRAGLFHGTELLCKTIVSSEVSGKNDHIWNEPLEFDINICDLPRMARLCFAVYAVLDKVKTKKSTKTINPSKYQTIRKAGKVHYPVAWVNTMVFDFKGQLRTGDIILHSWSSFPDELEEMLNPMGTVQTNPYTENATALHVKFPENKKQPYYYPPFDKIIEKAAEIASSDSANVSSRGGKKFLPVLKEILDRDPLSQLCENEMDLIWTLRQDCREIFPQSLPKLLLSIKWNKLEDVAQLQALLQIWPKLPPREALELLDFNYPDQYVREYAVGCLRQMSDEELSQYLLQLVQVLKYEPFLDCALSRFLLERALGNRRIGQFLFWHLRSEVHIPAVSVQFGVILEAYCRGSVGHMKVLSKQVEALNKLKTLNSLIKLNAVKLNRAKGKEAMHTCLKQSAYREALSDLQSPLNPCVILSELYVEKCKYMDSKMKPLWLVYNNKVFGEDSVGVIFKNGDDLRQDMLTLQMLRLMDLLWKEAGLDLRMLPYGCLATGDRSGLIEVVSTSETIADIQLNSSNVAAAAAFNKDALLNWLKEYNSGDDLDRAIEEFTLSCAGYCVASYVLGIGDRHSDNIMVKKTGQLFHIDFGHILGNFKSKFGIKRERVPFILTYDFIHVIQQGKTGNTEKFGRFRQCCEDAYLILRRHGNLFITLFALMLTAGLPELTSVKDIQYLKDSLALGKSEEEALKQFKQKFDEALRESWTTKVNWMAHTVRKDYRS
PIK3CA (human), sequence (P42336 whole entry, looked up): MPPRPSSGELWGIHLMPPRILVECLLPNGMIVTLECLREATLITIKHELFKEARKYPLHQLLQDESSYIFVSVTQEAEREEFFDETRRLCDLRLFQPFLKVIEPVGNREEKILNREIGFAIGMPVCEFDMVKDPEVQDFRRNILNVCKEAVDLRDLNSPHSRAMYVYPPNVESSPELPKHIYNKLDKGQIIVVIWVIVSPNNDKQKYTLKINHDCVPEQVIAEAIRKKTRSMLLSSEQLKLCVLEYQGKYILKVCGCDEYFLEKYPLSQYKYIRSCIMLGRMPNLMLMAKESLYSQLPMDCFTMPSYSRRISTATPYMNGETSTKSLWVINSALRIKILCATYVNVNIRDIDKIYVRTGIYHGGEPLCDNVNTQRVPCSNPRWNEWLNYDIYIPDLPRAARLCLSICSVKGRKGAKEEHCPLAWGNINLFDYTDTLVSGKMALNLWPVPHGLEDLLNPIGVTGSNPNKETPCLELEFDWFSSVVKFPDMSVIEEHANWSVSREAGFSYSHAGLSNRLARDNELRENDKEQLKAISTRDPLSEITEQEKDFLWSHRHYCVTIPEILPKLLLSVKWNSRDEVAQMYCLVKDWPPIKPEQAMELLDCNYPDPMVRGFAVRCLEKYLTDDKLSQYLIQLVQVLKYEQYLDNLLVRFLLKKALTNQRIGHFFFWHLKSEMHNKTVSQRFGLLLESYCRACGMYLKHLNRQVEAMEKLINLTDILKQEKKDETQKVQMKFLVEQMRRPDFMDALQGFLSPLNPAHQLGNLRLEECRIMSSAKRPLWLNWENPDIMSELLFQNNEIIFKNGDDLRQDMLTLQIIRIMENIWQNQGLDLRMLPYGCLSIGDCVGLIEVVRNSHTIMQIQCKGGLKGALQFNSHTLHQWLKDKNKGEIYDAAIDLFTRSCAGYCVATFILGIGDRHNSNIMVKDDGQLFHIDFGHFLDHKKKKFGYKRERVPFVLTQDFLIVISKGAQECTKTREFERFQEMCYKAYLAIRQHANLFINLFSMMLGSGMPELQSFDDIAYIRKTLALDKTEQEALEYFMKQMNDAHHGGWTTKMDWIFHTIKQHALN

Structure (SMILES) | IC50 (PIK3CD (Human) [1]) | IC50 (PIK3CG (human)) | IC50 (PIK3CB (Human)) | IC50 (PIK3CD (Human) [2]) | IC50 (PIK3CA (human) [3]) | IC50 (PIK3CA (human) [4])
C[C@H](Nc1ncnc2cccnc12)c1cc2cccc(-c3cnn(C)c3)c2c(=O)n1-c1ccccc1 | < 100 nM | < 100 nM | > 10000 nM | < 100 nM | – | –
Cc1ncc(-c2cccc3nc([C@H](C)Nc4nc(N)nc5cccnc45)n(-c4ccccc4)c(=O)c23)cn1 | < 100 nM | < 100 nM | > 10000 nM | < 100 nM | – | –
CC(C)n1c([C@H](C)Nc2ncnc3cccnc23)cc2cccc(-c3ccc(=O)n(C)c3)c2c1=O | 100 to 1000 nM | – | – | < 100 nM | – | –
C[C@H](Nc1ncnc2[nH]cnc12)c1cc2cccc(C(F)(F)F)c2c(=O)n1-c1cccc(F)c1 | < 100 nM | < 100 nM | – | < 100 nM | – | –
C[C@H](Nc1nc(N)nc2cccnc12)c1nc2cccc(-c3cnn(C)c3)c2c(=O)n1-c1ccccc1 | < 100 nM | < 100 nM | > 10000 nM | < 100 nM | 100 to 1000 nM | –
COc1ncc(-c2cccc3nc([C@H](C)Nc4nc(N)nc5cccnc45)n(-c4ccccc4)c(=O)c23)cn1 | < 100 nM | < 100 nM | > 10000 nM | < 100 nM | – | –
C[C@H](Nc1ncnc2cc(F)c(F)cc12)c1cc2cccc(Cl)c2c(=O)n1-c1ccccc1 | > 10000 nM | > 10000 nM | > 10000 nM | – | – | > 10000 nM
C[C@H](Nc1ccnn2ccnc12)c1cc2scc(-c3cnn(C)c3)c2c(=O)n1-c1ccccc1 | 100 to 1000 nM | 100 to 1000 nM | > 10000 nM | – | – | > 10000 nM
